ChEMBL document CHEMBL1142000, “(R)-2-(4-Phenylbutyl)dihydrobenzofuran derivatives as melatoninergic agents” (Bioorg Med Chem Lett, 2005)

Molecular target: T1, Melatonin receptor type 1B (Homo sapiens, UniProt P49286)
T1 sequence (P49286 whole entry): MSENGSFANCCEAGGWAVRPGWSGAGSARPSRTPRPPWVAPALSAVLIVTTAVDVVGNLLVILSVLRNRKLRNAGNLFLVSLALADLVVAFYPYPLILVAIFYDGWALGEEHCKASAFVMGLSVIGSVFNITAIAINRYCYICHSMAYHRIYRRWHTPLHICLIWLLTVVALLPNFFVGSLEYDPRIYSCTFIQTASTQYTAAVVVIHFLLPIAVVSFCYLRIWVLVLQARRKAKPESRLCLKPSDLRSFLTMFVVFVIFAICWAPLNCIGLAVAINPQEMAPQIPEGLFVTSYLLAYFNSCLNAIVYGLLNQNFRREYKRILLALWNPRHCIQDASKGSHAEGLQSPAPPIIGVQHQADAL
Assay: Binding affinity against Melatonin receptor type 1B stably expressed in NIH3T3 cells using 2-[125I]iodomelatonin
Assay type: cell-based

| Structure (SMILES) | Ki [nM] |
| --- | --- |
| CCC(=O)NCCCc1cccc2c1C[C@@H](CCCCc1ccccc1)O2 | 20 |
| CCNC(=O)NCCCc1cccc2c1C[C@@H](CCCCc1ccccc1)O2 | 40 |
| CCNC(=O)NC[C@@H]1C[C@H]1c1c(Cl)ccc2c1C[C@@H](CCCCc1ccccc1)O2 | 90 |
| CC(C)C(=O)NCCCc1cccc2c1C[C@@H](CCCCc1ccccc1)O2 | 40 |
| O=C(NCCCc1cccc2c1C[C@@H](CCCCc1ccccc1)O2)C1CC1 | 30 |
| CC(=O)NCCCc1cccc2c1C[C@@H](CCCCc1ccccc1)O2 | 8 |

Other lines, results leading:

| Ki [nM] | Structure (SMILES) |
| --- | --- |
| 2 | CC(=O)NC[C@@H]1C[C@H]1c1cccc2c1C[C@@H](CCCCc1ccccc1)O2 |
| 40 | CCNC(=O)NC[C@@H]1C[C@H]1c1cccc2c1C[C@@H](CCCCc1ccccc1)O2 |
| 5 | O=C(NC[C@@H]1C[C@H]1c1cccc2c1C[C@@H](CCCCc1ccccc1)O2)C1CC1 |
| 90 | CC(C)C(=O)NC[C@@H]1C[C@H]1c1cccc2c1C[C@@H](CCCCc1ccccc1)O2 |
| 2 | CCCC(=O)NC[C@@H]1C[C@H]1c1cccc2c1C[C@@H](CCCCc1ccccc1)O2 |
| 2 | CCC(=O)NC[C@@H]1C[C@H]1c1cccc2c1C[C@@H](CCCCc1ccccc1)O2 |
| 30 | CCCC(=O)NCCCc1cccc2c1C[C@@H](CCCCc1ccccc1)O2 |

Molecular target: Melatonin receptor type 1A (Homo sapiens, UniProt P48039)
Sequence (P48039 whole entry): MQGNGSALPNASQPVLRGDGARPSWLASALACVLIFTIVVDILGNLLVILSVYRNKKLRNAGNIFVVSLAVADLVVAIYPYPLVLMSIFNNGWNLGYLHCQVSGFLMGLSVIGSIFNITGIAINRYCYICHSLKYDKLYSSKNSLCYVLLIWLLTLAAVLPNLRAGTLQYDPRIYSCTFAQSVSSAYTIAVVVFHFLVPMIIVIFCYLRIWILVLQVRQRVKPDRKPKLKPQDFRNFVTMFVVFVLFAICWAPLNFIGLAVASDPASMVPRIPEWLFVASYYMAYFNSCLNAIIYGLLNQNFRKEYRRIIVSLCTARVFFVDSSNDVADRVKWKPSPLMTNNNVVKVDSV
Assay: Binding affinity against Melatonin receptor type 1A stably expressed in NIH3T3 cells using 2-[125I]iodomelatonin
Assay type: cell-based

| Structure (SMILES) | Ki [nM] |
| --- | --- |
| CCC(=O)NCCCc1cccc2c1C[C@@H](CCCCc1ccccc1)O2 | 1 |
| CCNC(=O)NCCCc1cccc2c1C[C@@H](CCCCc1ccccc1)O2 | 9 |
| CCNC(=O)NC[C@@H]1C[C@H]1c1c(Cl)ccc2c1C[C@@H](CCCCc1ccccc1)O2 | 60 |
| CC(C)C(=O)NCCCc1cccc2c1C[C@@H](CCCCc1ccccc1)O2 | 4 |
| O=C(NCCCc1cccc2c1C[C@@H](CCCCc1ccccc1)O2)C1CC1 | 2 |
| CC(=O)NCCCc1cccc2c1C[C@@H](CCCCc1ccccc1)O2 | 4 |

The next lines start with the values.

| Ki [nM] | Structure (SMILES) |
| --- | --- |
| 1 | CC(=O)NC[C@@H]1C[C@H]1c1cccc2c1C[C@@H](CCCCc1ccccc1)O2 |
| 9 | CCNC(=O)NC[C@@H]1C[C@H]1c1cccc2c1C[C@@H](CCCCc1ccccc1)O2 |
| 1 | O=C(NC[C@@H]1C[C@H]1c1cccc2c1C[C@@H](CCCCc1ccccc1)O2)C1CC1 |
| 6 | CC(C)C(=O)NC[C@@H]1C[C@H]1c1cccc2c1C[C@@H](CCCCc1ccccc1)O2 |
| 2 | CCCC(=O)NC[C@@H]1C[C@H]1c1cccc2c1C[C@@H](CCCCc1ccccc1)O2 |
| 1 | CCC(=O)NC[C@@H]1C[C@H]1c1cccc2c1C[C@@H](CCCCc1ccccc1)O2 |
| 2 | CCCC(=O)NCCCc1cccc2c1C[C@@H](CCCCc1ccccc1)O2 |
